Experimental data as given in US9023789B2, “Amylin analogs and pharmaceutical compositions thereof” (Novo Nordisk A/S, priority 2012, dated 2015).
Where two headings read alike, the source gives them in different places. Numbered stars: 1 amine (or outer) side, 2 acyl side, 3 side chain; on linkers, the order of the positions; unused ones are H or OH. Bridge positions count the residues as written; N and C are the ends. Peptide text beside a SMILES is read from it. * marks the point of attachment. C20 diacid = O=C(O)CCCCCCCCCCCCCCCCCCC(=O)*; γGlu = O=C(O)[C@H](CCC(=O)[*:2])N[*:1]; AEEA = NCCOCCOCC(=O)O

Legend:
rat calcitonin receptor = target: T1, rat calcitonin receptor (Rattus norvegicus, UniProt P32214); assay: ASSAY (VIII) binding to the rat calcitonin receptor; conditions: Table 7, read-out: rCTR bind IC50
T1 construct: expressed in transfected cells; host or cells: BHK tk'ts 13 (transient, FuGENE 6), membranes
T1 sequence (P32214 25-479 isoform P32214-2 limits assumed): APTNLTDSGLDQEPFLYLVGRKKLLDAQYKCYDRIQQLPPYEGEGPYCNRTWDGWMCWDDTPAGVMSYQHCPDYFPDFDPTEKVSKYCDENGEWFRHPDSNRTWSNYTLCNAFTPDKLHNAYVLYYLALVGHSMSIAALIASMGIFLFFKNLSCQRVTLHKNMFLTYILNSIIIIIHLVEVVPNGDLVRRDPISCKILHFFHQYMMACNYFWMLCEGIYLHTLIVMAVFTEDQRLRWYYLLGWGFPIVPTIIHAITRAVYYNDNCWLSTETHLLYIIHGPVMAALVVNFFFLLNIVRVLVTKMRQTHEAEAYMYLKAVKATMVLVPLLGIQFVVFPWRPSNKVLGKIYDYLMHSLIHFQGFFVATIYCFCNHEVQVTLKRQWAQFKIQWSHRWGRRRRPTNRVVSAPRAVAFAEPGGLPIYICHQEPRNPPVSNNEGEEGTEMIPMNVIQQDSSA
Summary of the method: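 BHK tk′ts 13 cells, transient rat calcitonin receptor transfection; DMEM + 10% FBS; harvest ~48 h post-transfection; membrane prep.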

[1] = ASSAY (IV) determination of solubility; assay type: physicochemical
Summary of the method: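 Solubility measured by UPLC of supernatant after centrifugation, following 18 h at room temperature. Peptide ([…] in water) was diluted 1:1 into 100 mM glycylglycine (pH 3.0, 4.0, 5.0) or bistrispropane (pH 6.0-8.0).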

[2] = target: T2, human amylin receptor (membranes from Amylin 3(a)/CRE-luc cells) (Homo sapiens, UniProt O60896+P30988); assay: ASSAY (V) binding to the human amylin receptor (SPA, 125I-rat amylin); conditions: for IC50: Table 4, read-out: hAmylin-R bind IC50;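 for all read-outs here: competition binding of cell membranes (35 ng/µL) mixed with SPA beads in 384-well plates at 40 µL total volume, read by scintillation counting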
T2 construct: expressed in transfected cells
T2 sequence (P30988 25-474): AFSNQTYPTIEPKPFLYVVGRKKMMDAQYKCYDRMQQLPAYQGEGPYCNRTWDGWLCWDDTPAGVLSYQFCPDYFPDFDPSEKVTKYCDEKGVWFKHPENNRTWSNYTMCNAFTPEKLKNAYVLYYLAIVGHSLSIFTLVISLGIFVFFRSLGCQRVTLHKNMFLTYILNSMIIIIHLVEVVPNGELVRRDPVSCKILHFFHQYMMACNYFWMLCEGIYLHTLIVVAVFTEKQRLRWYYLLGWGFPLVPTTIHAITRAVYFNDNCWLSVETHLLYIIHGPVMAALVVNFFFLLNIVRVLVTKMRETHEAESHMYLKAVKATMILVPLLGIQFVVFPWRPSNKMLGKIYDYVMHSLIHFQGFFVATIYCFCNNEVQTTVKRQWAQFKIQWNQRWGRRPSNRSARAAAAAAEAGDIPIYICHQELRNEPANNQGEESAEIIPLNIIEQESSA
T2 sequence (O60896 24-148 partner): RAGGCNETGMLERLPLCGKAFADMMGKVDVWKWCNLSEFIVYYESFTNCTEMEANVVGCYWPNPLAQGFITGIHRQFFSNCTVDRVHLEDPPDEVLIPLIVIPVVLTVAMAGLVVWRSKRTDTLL

[3] = target: T3, rat amylin receptor (rat calcitonin receptor + rat RAMP 3) (Rattus norvegicus, UniProt P32214+Q9JJ73); assay: ASSAY (VI) binding to the rat amylin receptor
T3 construct: expressed in transfected cells; host or cells: BHK tk'ts 13 (transient, FuGENE 6), membranes
T3 sequence (P32214 25-479 isoform P32214-2 limits assumed): T1 sequence (P32214 25-479 isoform P32214-2 limits assumed)
T3 sequence (Q9JJ73 23-147 partner): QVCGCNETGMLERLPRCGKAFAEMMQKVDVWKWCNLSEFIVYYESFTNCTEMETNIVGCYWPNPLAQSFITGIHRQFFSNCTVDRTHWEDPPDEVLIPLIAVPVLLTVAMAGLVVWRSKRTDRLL
Summary of the method: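 Membranes for this rat amylin receptor binding assay came from BHK tk′ts 13 cells. The cells were transiently transfected with rat calcitonin receptor using the FuGENE® 6 reagent from Roche, as the manufacturer recommends. The cells were collected approximately 48 hours after transfection, and membranes were then prepared.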

[4] = target: T4, human calcitonin receptor (Homo sapiens, UniProt P30988); assay: ASSAY (VII) binding to the human calcitonin receptor (SPA, 125I-Calcitonin); conditions: read-out: hCTR bind IC50;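 note: cell membranes (35 ng/µL) combined with SPA beads in 40 µL of pH 7.4 Hepes buffer, 384-well format, signal counted on a TopCounter instrument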
T4 construct: expressed in transfected cells
T4 sequence (P30988 25-474): T2 sequence (P30988 25-474)
Description: Membranes were prepared in the following way; the cells were rinsed with PBS and incubated with Versene for approximately 5 min before harvesting. The cells were flushed with PBS and the cell-suspension was centrifuged for 5 min at 1000 rpm. […] The resulting pellet was resuspended in buffer 2 and protein concentration was measured (BCA protein Assay, Pierce). The homogenate was kept cold during the whole procedure. The membranes were kept at −80° C. until use. Assay was performed in a 384 well Optiplate (PerkinElmer) in a total volume of 40 ul. Membranes were mixed with SPA beads. Final concentration of membranes 35 ng/μL final and Final concentration of SPA beads was 0.05 mg/well. Test-compounds were dissolved in DMSO and further diluted in assay buffer (50 mM Hepes, pH 7.4, 1 mM CaCl2, 5 mM MgCl2, 0.1% OA and 0.02% Tween20). […] Samples were analyzed on TopCounter™ (Packard).

[5] = target: T5, human calcitonin (a) receptor in BHK570 cells (Homo sapiens, UniProt P30988); assay: ASSAY (II)a functional assay, human calcitonin receptor (CRE luciferase); assay type: cell-based; conditions: read-out: hCTR funct. EC50
T5 construct: expressed in transfected cells
T5 sequence (P30988 25-474): T2 sequence (P30988 25-474)
Summary of the method: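 Readout is luminescence from a cAMP-responsive CRE-luc reporter, developed with LucLite for 30 min at room temperature. Cells were treated for 3 h at 37 °C in 10% FBS/DMEM buffered with 10 mM Hepes (pH 7.4).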

[6] = bistrispropane buffer, pH 6.5, read-out: Solubility pH 6.5 Concentration
[7] = bistrispropane buffer, pH 7.5, read-out: Solubility pH 7.5 Concentration
[8] = bistrispropane buffer, pH 6.0, read-out: Solubility pH 6.0 Concentration
[9] = bistrispropane buffer, pH 7.0, read-out: Solubility pH 7.0 Concentration
[10] = bistrispropane buffer, pH 8.0, read-out: Solubility pH 8.0 Concentration
[11] = glycylglycine buffer, pH 3.0, read-out: Solubility pH 3.0 Concentration
[12] = glycylglycine buffer, pH 4.0, read-out: Solubility pH 4.0 Concentration
[13] = glycylglycine buffer, pH 5.0, read-out: Solubility pH 5.0 Concentration
[14] = Table 5, selectivity, hCTR bind IC50 / hAmylin-R bind IC50
[15] = Table 7, human binding selectivity, included for comparison
[16] = Table 7, rat binding selectivity, rCTR IC50 / rAmylin-R IC50

SMILES | solubility at 18 h [1, 6] [µM] | solubility at 18 h [1, 7] [µM] | solubility at 18 h [1, 8] [µM] | solubility at 18 h [1, 9] [µM] | solubility at 18 h [1, 10] [µM] | solubility at 18 h [1, 11] [µM] | solubility at 18 h [1, 12] [µM] | solubility at 18 h [1, 13] [µM] | IC50 [2] [nM] | Ratio hCT/hAmylin binding [2, 14] | Ratio hCT/hAmylin binding [2, 15] | Ratio rCT/rAmylin binding [3, 16] | IC50 [4] [nM] | EC50 [5] [nM] | further results
CC[C@H](C)[C@H](NC(=O)[C@H](C)NC(=O)CNC(=O)[C@H](Cc1ccccc1)NC(=O)[C@H](CC(N)=O)NC(=O)[C@@H]1CCCN1C(=O)[C@H](CO)NC(=O)[C@H](CO)NC(=O)[C@H](Cc1c[nH]cn1)NC(=O)[C@H](CCCNC(=N)N)NC(=O)[C@H](CC(C)C)NC(=O)[C@H](Cc1ccccc1)NC(=O)[C@H](CC(N)=O)NC(=O)[C@H](C)NC(=O)[C@H](CC(C)C)NC(=O)[C@H](CCCNC(=N)N)NC(=O)[C@H](CCC(N)=O)NC(=O)[C@@H](NC(=O)[C@H](C)NC(=O)[C@@H]1CSSC[C@H](NC(=O)[C@H](CCCCN)NC(=O)CC[C@H](NC(=O)CCCCCCCCCCCCCCCCCCC(=O)O)C(=O)O)C(=O)N[C@@H](CC(N)=O)C(=O)N[C@@H]([C@@H](C)O)C(=O)N[C@@H](C)C(=O)N[C@@H]([C@@H](C)O)C(=O)N1)[C@@H](C)O)C(=O)N1CCC[C@H]1C(=O)N[C@@H](CO)C(=O)N[C@@H](CO)C(=O)N[C@H](C(=O)N1CCC[C@H]1C(=O)N[C@H](C(=O)NCC(=O)N[C@@H](CO)C(=O)N[C@@H](CCC(=O)O)C(=O)N[C@H](C(=O)N[C@@H](Cc1ccc(O)cc1)C(N)=O)[C@@H](C)O)C(C)C)[C@@H](C)O [Example 28] ({C20 diacid-γGlu}-KCNTATCATQRLANFLRHSSPNFGAIPSSTPVGSETY-NH2; disulfide 2-7 (inferred)) | ≥ 200 | ≥ 200 | ≥ 200 | ≥ 200 | ≥ 200 | ≥ 200 | ≥ 200 | ≥ 200 | 0.61 | 20.5 | 20.5 | 44.9 | 12.5 | 2.03 | IC50 (rat calcitonin receptor): 54.9 nM; Ratio hCT/hAmylin binding ([2]; Table 5a, selectivity, hCTR bind IC50 / hAmylin-R bind IC50): 20.5; Ratio hCT/hAmylin binding ([2]; Table 5b, selectivity, hCTR bind IC50 / hAmylin-R bind IC50): 20.5; Ratio hCT/hAmylin binding ([2]; Table 5c, selectivity, hCTR bind IC50 / hAmylin-R bind IC50): 20.5; Ratio hCT/hAmylin binding ([2]; Table 7a (preferred compounds), human binding selectivity, included for comparison): 20.5; Ratio hCT/hAmylin binding ([2]; ratio of human calcitonin receptor binding IC50 to human amylin receptor binding IC50): 20.5; IC50 ([3]; Table 7, binding to rat amylin receptor, read-out: rAmylin-R bind IC50): 1.22 nM; Ratio rCT/rAmylin binding ([3]; Table 7a (preferred compounds), rat binding selectivity, rCTR IC50 / rAmylin-R IC50): 44.9; Ratio rCT/rAmylin binding ([3]; ratio of rCTR bind IC50 to rAmylin-R bind IC50): 44.9
CC[C@H](C)[C@H](NC(=O)[C@H](C)NC(=O)CNC(=O)[C@H](Cc1ccccc1)NC(=O)[C@H](CC(N)=O)NC(=O)[C@@H]1CCCN1C(=O)[C@H](CO)NC(=O)[C@H](CO)NC(=O)[C@H](Cc1c[nH]cn1)NC(=O)[C@H](CCCNC(=N)N)NC(=O)[C@H](CC(C)C)NC(=O)[C@H](Cc1ccccc1)NC(=O)[C@H](CCC(=O)O)NC(=O)[C@H](C)NC(=O)[C@H](CC(C)C)NC(=O)[C@H](CCCNC(=N)N)NC(=O)[C@H](CCC(N)=O)NC(=O)[C@@H](NC(=O)[C@H](C)NC(=O)[C@@H]1CSSC[C@H](NC(=O)[C@H](CCCCN)NC(=O)COCCOCCNC(=O)COCCOCCNC(=O)CC[C@H](NC(=O)CCCCCCCCCCCCCCCCCCC(=O)O)C(=O)O)C(=O)N[C@@H](CC(N)=O)C(=O)N[C@@H]([C@@H](C)O)C(=O)N[C@@H](C)C(=O)N[C@@H]([C@@H](C)O)C(=O)N1)[C@@H](C)O)C(=O)N1CCC[C@H]1C(=O)N[C@@H](CO)C(=O)N[C@@H](CO)C(=O)N[C@H](C(=O)N[C@@H](CC(N)=O)C(=O)N[C@H](C(=O)NCC(=O)N[C@@H](CO)C(=O)N[C@@H](CC(N)=O)C(=O)N[C@H](C(=O)N1CCC[C@H]1C(N)=O)[C@@H](C)O)C(C)C)[C@@H](C)O [Example 20] ({C20 diacid-γGlu-AEEA-AEEA}-KCNTATCATQRLAEFLRHSSPNFGAIPSSTNVGSNTP-NH2; disulfide 2-7) | ≥ 200 | ≥ 200 | ≥ 200 | ≥ 200 | ≥ 200 | ≥ 200 | ≥ 200 | ≥ 200 | 0.217 | 3.6 | 3.6 | 6.4 | 0.787 | 0.285 | –
